# Reference: patent US20180208920A1, “MOLECULAR MACHINES” (Commonwealth Scientific and Industrial Research Organisation, priority 2015, published 2018)
# T1: EcG3PD2 (Escherichia coli, UniProt P0A6S7)
# T1 construct: His tag; made in house; host or cells: E. coli BL21AI or BL21DE3*
# T1 sequence (P0A6S7 1-339): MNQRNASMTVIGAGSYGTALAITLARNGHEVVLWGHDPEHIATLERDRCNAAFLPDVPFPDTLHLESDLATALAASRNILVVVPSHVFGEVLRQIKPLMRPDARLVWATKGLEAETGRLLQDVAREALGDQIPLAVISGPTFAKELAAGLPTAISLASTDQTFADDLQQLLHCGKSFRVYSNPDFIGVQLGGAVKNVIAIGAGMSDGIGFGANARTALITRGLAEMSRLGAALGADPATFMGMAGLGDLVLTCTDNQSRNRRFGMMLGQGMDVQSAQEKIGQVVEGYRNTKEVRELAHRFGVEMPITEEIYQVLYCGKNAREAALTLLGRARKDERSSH
# B1: EcG3PD2 (Escherichia coli K-12) (protein)
# chain: T1 sequence (P0A6S7 1-339)
# notes: His tag; made in house; host or cells: E. coli BL21AI or BL21DE3*
# Assays:
# CaNOX::AaE2 = assay type: biochemical, Alicyclobacillus acidophilus; conditions: after 5 min incubation with inhibitor on ice
# [1] = tested on: EcG3PD::CaNOX::AaE2 (TriF2); assay type: biochemical, Alicyclobacillus acidophilus; conditions: after 5 min incubation with inhibitor on ice
# CaNOX = experiment: Kinetics of NADH oxidase (NOX) with modified cofactor; assay type: biochemical, Clostridium aminoverlaricum; conditions: for Kcat / Km: cofactor as substrate of CaNOX
# Description: (§1) The relative enzyme activity for the NAD-dependant glycerol-3-phosphate dehydrogenase enzymes identified for DHAP synthesis was assessed with the modified N^6-2AE-NAD. Kinetic data for EcG3PD and CaNOX was also obtained. To determine the relative activities and kinetic enzyme efficiency, modified N^6-2AE-NAD was reduced enzymatically, separated from enzymes using ultrafiltration and the amount of N^6-2AE-NADH calculated based on the absorbance A340nm.
# [2] = Batch reactions converting glycerol to G3P and DHAP; assay type: biochemical
# Description: Reactions were conducted at room temperature in 1 mL total volume with 10 mM glycerol as starting substrate, between 1 and 14 nM of enzyme and 100 μM each of ATP and NAD. Samples were collected at various time points and analysed by LCMS (SIM monitoring for G3P and DHAP).
# G3P and DHAP were separated using a modification of the method described in Prieto-Blanc et al., (2010). Chromatographic conditions were SIELC ObeliscN column (250 mm) with 50% mobile phase A, 50% mobile phase B for 30 minutes. Mobile phase A: 0.1% formic acid; mobile phase b: methanol with 0.1% acetic acid. Mass spectrophotometric detection was conducted using API-ES mode with an Agilent 6120 Quadroploe LCMS. Glycerol-3-phosphate was quantified by selected ion monitoring of ion 171, DHAP quantified by selected ion monitoring of ion 169, the three aldol condensation products fructose-1,6-biphosphate, “AP” and “XP” were quantified by selected ion monitoring of […].
# EcG3PD2 = target: T1, EcG3PD2; experiment: Kinetics of glycerol-3-phosphate dehydrogenase with modified cofactor; assay type: biochemical, E. coli; conditions: EcG3PD, full kinetic analysis
# Description: as §1
# (§2) Glycerol-3-phosphate dehydrogenase assays were conducted essentially as described by (Sakasegawa et al., 2004). Kinetics were determined by varying the concentrations of NAD/NADP or glycerol-3-phosphate, whilst maintaining the other components in excess, and kinetic determinants were calculated using Hyper (J. S. Easterby, Liverpool University). Substrate and cofactor concentrations ranged from 0.1 to 10×Km.
# [3] = substrate: NC(=O)c1ccc[n+]([C@@H]2O[C@H](COP(=O)([O-])OP(=O)(O)OC[C@H]3O[C@@H](n4cnc5c(N)ncnc54)[C@H](O)[C@@H]3O)[C@@H](O)[C@H]2O)c1; experiment: as above; assay type: biochemical, E. coli; conditions: other: cofactor as substrate of EcG3PD2
# Description: as §1, §2
# [4] = substrate: NCCNc1ncnc2c1ncn2[C@H]1O[C@@H](COP(=O)(O)OP(=O)(O)OC[C@H]2O[C@@H]([n+]3cccc(C(N)=O)c3)C(O)C2O)C(O)C1O; experiment: as above; assay type: biochemical, E. coli; conditions: other: cofactor as substrate of EcG3PD2
# Description: as §1, §2
molecule,measurement,setting,value
"CCCCCCSCC(=O)C(F)(F)F [1,1,1-trifluoro-3-(thiohexyl)propan-2-one]",residual esterase activity,CaNOX::AaE2,completely abolished
same,residual esterase activity,[1],completely abolished
NC(=O)C1=CN([C@@H]2O[C@H](COP(=O)(O)OP(=O)(O)OC[C@H]3O[C@@H](n4cnc5c(N)ncnc54)[C@H](O)[C@@H]3O)[C@@H](O)[C@H]2O)C=CC1 [NADH],Kcat,CaNOX,1204 ± 67.5 s⁻¹
same,Km,CaNOX,204 ± 15.4 µM
"Nc1ncnc2c1ncn2[C@@H]1O[C@H](COP(=O)(O)OP(=O)(O)OP(=O)(O)O)[C@@H](O)[C@H]1O [ATP, adenosine triphosphate]",turnover of ATP per hour,[2]; BiF1 plus BiF2 batch reaction,~40 h⁻¹
same,turnovers of ATP per batch reaction,"[2]; BiF1 plus BiF2 batch, 90 mM conversion of glycerol from 0.1 mM ATP starting concentration",~200
same,turnovers of ATP per batch reaction,"[2]; TriF1 plus TriF2 batch, 4.5 mM conversion of glycerol from 0.01 mM ATP starting concentration",~450
NCCNc1ncnc2c1ncn2[C@@H]1O[C@H](COP(=O)(O)OP(=O)(O)OC[C@H]2O[C@@H](N3C=CCC(C(N)=O)=C3)[C@H](O)[C@@H]2O)[C@@H](O)[C@H]1O [N^6-2AE-NADH],catalytic efficiency compared to NADH as substrate,CaNOX; NOX1 (CaNOX),reduction in the catalytic efficiency
same,Kcat,CaNOX,343 ± 32.6 s⁻¹
same,Km,CaNOX,215 ± 27.2 µM
"NCCNc1ncnc2c1ncn2[C@H]1O[C@@H](COP(=O)(O)OP(=O)(O)OC[C@H]2O[C@@H]([n+]3cccc(C(N)=O)c3)C(O)C2O)C(O)C1O (some centres unmarked) [N^6-2AE-NAD, N^6-(2-aminoethyl)-NAD^+]",activity retained with the modified cofactor compared with unmodified NAD,EcG3PD2,78%
B1,Km,[3],147.1 ± 25.4 µM
same,kcat,[3],66.7 ± 10.6 s⁻¹
same,kcat/Km,[3],450000 M⁻¹ s⁻¹
same,Km,[4],181.2 ± 37.5 µM
same,kcat,[4],63.5 ± 9.4 s⁻¹
same,kcat/Km,[4],350000 M⁻¹ s⁻¹
